{"source": "patent US10172306B2", "about": "“Production of ingenol, ingenol esters and/or tiglian-3-one derivatives by euphorbiaceae plant cell suspension cultures” (Phyton Holdings, LLC, priority 2015, dated 2019)", "test_system": "suspension culture of E. peplus", "assay": "Precursor feeding of E. peplus suspension culture with angelic acid: cell growth", "type": "cell-based, Euphorbia peplus", "conditions": "0.5 mM angelic acid added to E. peplus suspension culture, cultivated for 7-14 days; sterile water as negative control", "procedure": "Further increase of Ingenol-3-angelate was achieved using angelic acid as a precursor. A suspension culture of E. peplus, newly transferred or up to 14 days old, was supplemented with 0.5 mM angelic acid. […] The same amount of sterile water was used as a negative control. After addition of angelic acid, the culture was cultivated for 7-14 days (see FIG. 6)."}
{"smiles": "C/C=C(/C)C(=O)O", "note": "[angelic acid, 2-methyl-2(Z)-butenoic acid]", "values": [{"measurement": "influence on cell growth", "value": "no influence on cell growth"}]}
